Reference: US20240287154A1, “MC3R AGONIST PEPTIDES” (The Regents of the University of Michigan, priority 2021, published 2024)
Non-standard residues stand in square brackets, D forms with d. Residues, ends and D or L forms follow the SMILES beside them. Bip = N[C@@H](Cc1ccc(-c2ccccc2)cc1)C(=O)O; Phe(4-I) = N[C@@H](Cc1ccc(I)cc1)C(=O)O; Nle = CCCC[C@H](N)C(=O)O; dNMeA = CN[C@H](C)C(=O)O; Aib = CC(C)(N)C(=O)O

Molecular target: human MC4R (Homo sapiens, UniProt P32245)
Assay: Intracellular cAMP levels in live cells, MC3R selectivity relative to MC4R
Assay type: cell-based
Details: cAMP assays in human MC3R and human MC4R stable cell lines
Description: The stable cell lines were grown and maintained in selection media consisting of Dulbecco's modified Eagle media (DMEM) with 4.5 g/l D-glucose, and 4 mM L-glutamine (Thermo Fisher Scientific, Waltham, MA), supplemented with 10% fetal bovine serum, 100 units/ml penicillin, 100 μg/ml streptomycin, 2.5 μg/ml amphotericin B, 200 μg/ml hygromycin B (for positive selection of the GScAMP22f luciferase reporter), and Geneticin™ (G418) 700 μg/ml (for MC3R or MC4R selection). Actual serum concentration during the assay is estimated to be about 1%. Cell line identity is routinely verified by qPCR and MC3R- and MC4R-specific oligonucleotides.
The assay for the determination of the CAMP response in live cells was described previously. […] Ccells were seeded at a density of 20,000 cells per well using 384-well poly-D lysine-coated, clear bottom, and black-wall assay plates (Corning Inc. Corning, NJ). Cells were allowed to attach to the plates for 18 to 24 h after which growth media was removed and 20 ul of 4% D-luciferin (Promega) in CO2 independent, serum-free medium (Thermo Fisher Scientific) was added to each well. […] Intracellular cAMP levels were measured using an FDSS 7000EX Functional Drug Screening System (Hamamatsu Photonics, Hamamatsu, Japan) in the Center for Chemical Genomics at the Life Sciences Institute. This instrument allowed the in-line addition of test-peptides and receptor agonists while simultaneously acquiring the luminescence signal from live cells. […] A submaximal forskolin (20 μM) concentration was also included to serve as a normalization reference to account for cell number variations and differences in assay transducer efficiency between cell lines.
With this set up it was possible to evaluate the direct agonist effect of the test-peptides on the MC3R and MC4R cell lines during measurement window 1, while the antagonist profile in the presence of EC90 α-MSH was determined on measurement window 2. […] EC50 or IC50 potency values were determined by non-linear regression by fitting the data to a sigmoid four-parameter variable slope model using the GraphPad Prism version 8.4 software package (San Diego CA).

Chain of human MC4R (P32245 whole entry): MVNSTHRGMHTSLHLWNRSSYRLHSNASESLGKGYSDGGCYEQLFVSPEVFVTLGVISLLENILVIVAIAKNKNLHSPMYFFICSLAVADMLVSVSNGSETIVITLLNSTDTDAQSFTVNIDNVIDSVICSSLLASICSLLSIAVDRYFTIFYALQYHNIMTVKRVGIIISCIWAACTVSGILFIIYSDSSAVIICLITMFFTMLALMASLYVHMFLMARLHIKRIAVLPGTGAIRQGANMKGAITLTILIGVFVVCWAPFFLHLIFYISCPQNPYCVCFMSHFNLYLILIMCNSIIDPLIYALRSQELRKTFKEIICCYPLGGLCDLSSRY

| SMILES | MC3R selectivity (relative to MC4R) |
| --- | --- |
| CCCC[C@H](NC(C)=O)C(=O)NC(C)(C)C(=O)N[C@@H](Cc1c[nH]cn1)C(=O)N[C@@H](Cc1ccc(I)cc1)C(=O)N[C@@H](CCCNC(=N)N)C(=O)N[C@H](Cc1c[nH]c2ccccc12)C(=O)NCC(N)=O [CTX-1545, Nle-Aib-His-Phe(4-I)-Arg-D-Trp-Gly] (Ac-[Nle][Aib]H[Phe(4-I)]R[dW]G-NH2) | 14 |
| CCCC[C@H](NC(C)=O)C(=O)N[C@H](C)C(=O)N[C@@H](Cc1c[nH]cn1)C(=O)N[C@@H](Cc1ccc(I)cc1)C(=O)N[C@@H](CCCNC(=N)N)C(=O)N[C@H](Cc1ccccc1)C(=O)N[C@@H](CC(=O)O)C(=O)N[C@@H](CCCNC(=N)N)C(=O)N[C@@H](Cc1ccccc1)C(=O)NCC(=O)O [CTX-1503, Nle-D-Ala-His-Phe(4-I)-Arg-D-Phe-Asp-Arg-Phe-Gly] (Ac-[Nle][dA]H[Phe(4-I)]R[dF]DRFG-OH) | 214 |
| CCCC[C@H](NC(C)=O)C(=O)N[C@H](C)C(=O)N[C@@H](Cc1c[nH]cn1)C(=O)N[C@@H](Cc1ccc(I)cc1)C(=O)N[C@@H](CCCNC(=N)N)C(=O)N[C@H](Cc1c[nH]c2ccccc12)C(=O)N[C@@H](CC(=O)O)C(=O)N[C@@H](CCCNC(=N)N)C(N)=O [CTX-1170, Nle-D-Ala-His-Phe(4-I)-Arg-D-Trp-Asp-Arg] (Ac-[Nle][dA]H[Phe(4-I)]R[dW]DR-NH2) | 67 |
| CC(=O)N[C@H](C(=O)NCC(=O)N[C@@H](Cc1c[nH]cn1)C(=O)N[C@H](Cc1ccccc1)C(=O)N[C@@H](CCCNC(=N)N)C(=O)N[C@H](Cc1c[nH]c2ccccc12)C(=O)N[C@@H](CC(=O)O)C(N)=O)[C@@H](C)O [CTX-1113, Thr-Gly-His-D-Phe-Arg-D-Trp-Asp] (Ac-TGH[dF]R[dW]D-NH2) | 0.4 |
| CCCC[C@H](NC(C)=O)C(=O)N[C@H](C)C(=O)N[C@@H](Cc1c[nH]cn1)C(=O)N[C@@H](Cc1ccccc1)C(=O)N[C@@H](CCCNC(=N)N)C(=O)N[C@H](Cc1c[nH]c2ccccc12)C(=O)N[C@@H](CC(=O)O)C(=O)N[C@@H](CCCNC(=N)N)C(=O)N[C@H](Cc1ccccc1)C(=O)NCC(=O)O [CTX-1145, Nle-D-Ala-His-Phe-Arg-D-Trp-Asp-Arg-D-Phe-Gly] (Ac-[Nle][dA]HFR[dW]DR[dF]G-OH) | 535 |
| CCCC[C@H](NC(=O)[C@@H](NC(=O)[C@@H](N)Cc1ccc(O)cc1)C(C)C)C(=O)N[C@H](C)C(=O)N[C@@H](Cc1c[nH]cn1)C(=O)N[C@H](Cc1ccccc1)C(=O)N[C@@H](CCCNC(=N)N)C(=O)N[C@H](Cc1c[nH]c2ccccc12)C(=O)N[C@@H](CC(=O)O)C(=O)N[C@@H](CCCNC(=N)N)C(=O)N[C@@H](Cc1ccccc1)C(=O)NCC(=O)O [CTX-1104, Tyr-Val-Nle-D-Ala-His-D-Phe-Arg-D-Trp-Asp-Arg-Phe-Gly] (H-YV[Nle][dA]H[dF]R[dW]DRFG-OH) | 27 |
| CCCC[C@H](NC(C)=O)C(=O)N[C@H](C)C(=O)N[C@@H](Cc1c[nH]cn1)C(=O)N[C@@H](Cc1ccccc1)C(=O)N[C@@H](CCCNC(=N)N)C(=O)N[C@H](Cc1c[nH]c2ccccc12)C(=O)N[C@H](Cc1ccccc1)C(=O)N[C@@H](CCCNC(=N)N)C(=O)N[C@@H](Cc1ccccc1)C(=O)NCC(=O)O [CTX-1530, Nle-D-Ala-His-Phe-Arg-D-Trp-D-Phe-Arg-Phe-Gly] (Ac-[Nle][dA]HFR[dW][dF]RFG-OH) | 15 |
| CCCC[C@H](NC(C)=O)C(=O)N[C@H](C)C(=O)N[C@@H](Cc1c[nH]cn1)C(=O)N[C@@H](Cc1ccccc1)C(=O)N[C@@H](CCCNC(=N)N)C(=O)N[C@H](Cc1c[nH]c2ccccc12)C(=O)N[C@@H](CC(=O)O)C(=O)N[C@@H](CCCNC(=N)N)C(=O)N1CCC[C@H]1C(=O)NCC(=O)O [CTX-1536, Nle-D-Ala-His-Phe-Arg-D-Trp-Asp-Arg-Pro-Gly] (Ac-[Nle][dA]HFR[dW]DRPG-OH) | 72 |
| CCCC[C@H](NC(=O)[C@@H](NC(=O)[C@@H](N)Cc1ccc(O)cc1)C(C)C)C(=O)NC(C)(C)C(=O)N[C@@H](Cc1c[nH]cn1)C(=O)N[C@@H](Cc1ccccc1)C(=O)N[C@@H](CCCNC(=N)N)C(=O)N[C@H](Cc1c[nH]c2ccccc12)C(=O)N[C@@H](CC(=O)O)C(N)=O [CTX-1130, Tyr-Val-Nle-Aib-His-Phe-Arg-D-Trp-Asp] (H-YV[Nle][Aib]HFR[dW]D-NH2) | 58 |
| CCCC[C@H](NC(C)=O)C(=O)N[C@H](C)C(=O)N[C@@H](Cc1c[nH]cn1)C(=O)N[C@@H](Cc1ccccc1)C(=O)N[C@@H](CCCNC(=N)N)C(=O)N[C@H](Cc1c[nH]c2ccccc12)C(=O)N[C@@H](CC(=O)O)C(=O)N[C@@H](CCCNC(=N)N)C(=O)N[C@@H](C)C(=O)NCC(=O)O [CTX-1537, Nle-D-Ala-His-Phe-Arg-D-Trp-Asp-Arg-Ala-Gly] (Ac-[Nle][dA]HFR[dW]DRAG-OH) | 278 |
| CSCC[C@H](NC(=O)[C@@H](NC(=O)[C@@H](N)Cc1ccc(O)cc1)C(C)C)C(=O)NCC(=O)N[C@@H](CCCNC(=N)N)C(=O)N[C@@H](Cc1ccccc1)C(=O)N[C@@H](CCCNC(=N)N)C(=O)N[C@H](Cc1c[nH]c2ccccc12)C(=O)N[C@@H](CC(=O)O)C(=O)N[C@@H](CCCNC(=N)N)C(=O)N[C@@H](Cc1ccccc1)C(=O)NCC(=O)O [CTX-1548, Tyr-Val-Met-Gly-Arg-Phe-Arg-D-Trp-Asp-Arg-Phe-Gly] (H-YVMGRFR[dW]DRFG-OH) | 267 |
| CCCC[C@H](NC(C)=O)C(=O)N[C@H](C)C(=O)N[C@@H](Cc1c[nH]cn1)C(=O)N[C@@H](Cc1ccccc1)C(=O)N[C@@H](CCCNC(=N)N)C(=O)N[C@H](Cc1c[nH]c2ccccc12)C(=O)N[C@@H](CC(=O)O)C(=O)N[C@@H](CCCNC(=N)N)C(=O)N[C@@H](Cc1ccccc1)C(N)=O [CTX-1158, Nle-D-Ala-His-Phe-Arg-D-Trp-Asp-Arg-Phe] (Ac-[Nle][dA]HFR[dW]DRF-NH2) | 535 |
| CCCC[C@H](NC(C)=O)C(=O)N[C@H](C)C(=O)N[C@@H](Cc1c[nH]cn1)C(=O)N[C@@H](Cc1ccccc1)C(=O)N[C@@H](CCCNC(=N)N)C(=O)N[C@H](Cc1c[nH]c2ccccc12)C(=O)N[C@@H](CC(=O)O)C(=O)N[C@@H](CCCCN)C(=O)N[C@@H](Cc1ccccc1)C(=O)NCC(=O)O [CTX-1535, Nle-D-Ala-His-Phe-Arg-D-Trp-Asp-Lys-Phe-Gly] (Ac-[Nle][dA]HFR[dW]DKFG-OH) | 1,589 |
| CCCC[C@H](NC(C)=O)C(=O)N[C@H](C)C(=O)N[C@@H](Cc1c[nH]cn1)C(=O)N[C@@H](Cc1ccc(-c2ccccc2)cc1)C(=O)N[C@@H](CCCNC(=N)N)C(=O)N[C@H](Cc1c[nH]c2ccccc12)C(=O)N[C@@H](CC(=O)O)C(=O)N[C@@H](CCCNC(=N)N)C(=O)N[C@@H](Cc1ccccc1)C(=O)NCC(N)=O [CTX-1168, Nle-D-Ala-His-Bip-Arg-D-Trp-Asp-Arg-Phe-Gly] (Ac-[Nle][dA]H[Bip]R[dW]DRFG-NH2) | 485 |
| CCCC[C@H](NC(=O)[C@@H](NC(=O)[C@@H](N)Cc1ccc(O)cc1)C(C)C)C(=O)NCC(=O)N[C@@H](CCCNC(=N)N)C(=O)N[C@@H](Cc1ccccc1)C(=O)N[C@@H](CCCNC(=N)N)C(=O)N[C@H](Cc1c[nH]c2ccccc12)C(=O)N[C@@H](CC(=O)O)C(=O)N[C@@H](CCCNC(=N)N)C(=O)N[C@@H](Cc1ccccc1)C(=O)NCC(=O)O [CTX-1549, Tyr-Val-Nle-Gly-Arg-Phe-Arg-D-Trp-Asp-Arg-Phe-Gly] (H-YV[Nle]GRFR[dW]DRFG-OH) | 102 |
| CCCC[C@H](NC(C)=O)C(=O)N(C)[C@H](C)C(=O)N[C@@H](Cc1c[nH]cn1)C(=O)N[C@@H](Cc1ccccc1)C(=O)N[C@@H](CCCNC(=N)N)C(=O)N[C@H](Cc1c[nH]c2ccccc12)C(=O)N[C@@H](CC(=O)O)C(=O)N[C@@H](CCCNC(=N)N)C(=O)N[C@@H](Cc1ccccc1)C(=O)NCC(=O)O [CTX-1183, Nle-NMe-D-Ala-His-Phe-Arg-D-Trp-Asp-Arg-Phe-Gly] (Ac-[Nle][dNMeA]HFR[dW]DRFG-OH) | 515 |
| CC(=O)N[C@@H](Cc1ccc(O)cc1)C(=O)N[C@H](C(=O)N[C@@H](CCC(=O)O)C(=O)NC(C)(C)C(=O)N[C@@H](Cc1c[nH]cn1)C(=O)N[C@@H](Cc1ccc(I)cc1)C(=O)N[C@@H](CCCNC(=N)N)C(=O)N[C@H](Cc1c[nH]c2ccccc12)C(=O)N[C@@H](CC(=O)O)C(=O)N[C@@H](CCCNC(=N)N)C(=O)N[C@@H](Cc1ccccc1)C(=O)NCC(=O)O)C(C)C [CTX-1195, Tyr-Val-Glu-Aib-His-Phe(4-I)-Arg-D-Trp-Asp-Arg-Phe-Gly] (Ac-YVE[Aib]H[Phe(4-I)]R[dW]DRFG-OH) | 51 |
| CCCC[C@H](NC(C)=O)C(=O)N[C@H](C)C(=O)N[C@@H](Cc1c[nH]cn1)C(=O)N[C@@H](Cc1ccccc1)C(=O)N[C@@H](CCCNC(=N)N)C(=O)N[C@H](Cc1c[nH]c2ccccc12)C(=O)N[C@@H](CC(=O)O)C(=O)N[C@@H](CCCNC(=N)N)C(N)=O [CTX-1163, Nle-D-Ala-His-Phe-Arg-D-Trp-Asp-Arg] (Ac-[Nle][dA]HFR[dW]DR-NH2) | 282 |
